Experimental data: patent US9157077B2, “Aminopyrimidine kinase inhibitors” (Jasco Pharmaceuticals, LLC, priority 2009, dated 2015)

Key:
Assay in all cases: IC50 of Compound (nM) (ATP present at Km of enzyme), Table 30
Type in all cases: biochemical
[1] = molecular target: Enzyme (kinases of Table 30) (Homo sapiens, UniProt Q9P1W9); conditions: Pim-2(h), ATP present at Km of enzyme; read-out: IC50 of Compound, Pim-2(h)
[2] = molecular target: Enzyme (kinases of Table 30) (Homo sapiens, UniProt P11309); conditions: Pim-1(h), ATP present at Km of enzyme; read-out: IC50 of Compound, Pim-1(h)
[3] = molecular target: Enzyme (kinases of Table 30) (Homo sapiens, UniProt Q86V86); conditions: Pim-3(h), ATP present at Km of enzyme; read-out: IC50 of Compound, Pim-3(h)
[4] = molecular target: T1, Enzyme (kinases of Table 30) (Homo sapiens, UniProt P68400); conditions: CK2(h), ATP present at Km of enzyme
T1 construct: IC50 of Compound, CK2(h); other: CK2(h), ATP present at Km of enzyme
T1 sequence (P68400 whole entry): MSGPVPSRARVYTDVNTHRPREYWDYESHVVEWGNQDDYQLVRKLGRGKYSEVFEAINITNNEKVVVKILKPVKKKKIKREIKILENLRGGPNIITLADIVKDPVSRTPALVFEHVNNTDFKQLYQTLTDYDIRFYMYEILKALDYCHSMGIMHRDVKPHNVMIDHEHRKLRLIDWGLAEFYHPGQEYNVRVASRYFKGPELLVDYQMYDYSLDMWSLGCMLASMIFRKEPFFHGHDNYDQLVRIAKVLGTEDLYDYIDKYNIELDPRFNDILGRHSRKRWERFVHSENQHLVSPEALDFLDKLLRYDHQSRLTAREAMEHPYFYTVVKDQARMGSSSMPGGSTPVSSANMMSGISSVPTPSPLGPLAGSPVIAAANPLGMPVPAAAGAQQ

Sequence of Enzyme (kinases of Table 30) (Homo sapiens, UniProt P11309) (P11309 whole entry): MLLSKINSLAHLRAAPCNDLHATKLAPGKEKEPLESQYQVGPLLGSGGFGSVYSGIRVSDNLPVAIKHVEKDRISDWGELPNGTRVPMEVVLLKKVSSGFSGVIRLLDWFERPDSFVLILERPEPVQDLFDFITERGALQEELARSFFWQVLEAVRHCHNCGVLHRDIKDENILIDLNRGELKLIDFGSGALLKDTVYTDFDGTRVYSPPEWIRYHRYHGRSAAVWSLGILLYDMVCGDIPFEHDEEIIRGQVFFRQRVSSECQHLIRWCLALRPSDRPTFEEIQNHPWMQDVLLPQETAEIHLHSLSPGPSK
Sequence of Enzyme (kinases of Table 30) (Homo sapiens, UniProt Q9P1W9) (Q9P1W9 whole entry): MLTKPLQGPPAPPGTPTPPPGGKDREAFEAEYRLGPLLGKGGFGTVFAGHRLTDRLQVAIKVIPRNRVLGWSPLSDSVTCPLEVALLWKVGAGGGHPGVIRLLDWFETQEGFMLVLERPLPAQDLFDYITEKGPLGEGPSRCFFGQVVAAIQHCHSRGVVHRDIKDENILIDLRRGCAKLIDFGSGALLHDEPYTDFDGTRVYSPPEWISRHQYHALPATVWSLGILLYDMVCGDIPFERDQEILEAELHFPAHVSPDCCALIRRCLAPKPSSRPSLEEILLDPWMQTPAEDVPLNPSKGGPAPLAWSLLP

| Structure (SMILES) | IC50 [1] | IC50 [2] | IC50 [3] | IC50 [4] |
| --- | --- | --- | --- | --- |
| CN(c1nccc(/C=C2\SC(=O)NC2=O)n1)[C@H]1CCCNC1 [compound 143] | 5 nM | 20 nM | 3 nM | 66 nM |
| O=C1NC(=O)/C(=C/c2ccnc(NCC3CCNCC3)n2)S1 [compound 147] | 90 nM | 258 nM | 31 nM | 134 nM |
| CN(CC1CCNCC1)c1nccc(/C=C2\SC(=O)NC2=O)n1 [compound 151] | 98 nM | 246 nM | 171 nM | 415 nM |
| Nc1ccc2c(c1)CN(c1nccc(/C=C3\SC(=O)NC3=O)n1)CC2 [compound 90] | 89 nM | 97 nM | 419 nM | 291 nM |
| CN(c1nccc(/C=C2\SC(=O)NC2=O)n1)C1CCCCC1 [compound 119] | 16 nM | 186 nM | 267 nM | 176 nM |
| O=C1NC(=O)/C(=C/c2ccnc(N3CCc4[nH]c5ccccc5c4C3)n2)S1 [compound 91] | 127 nM | 255 nM | 1000 nM | 222 nM |
| CCCCN(C)c1nccc(/C=C2\SC(=O)NC2=O)n1 [compound 87] | 80 nM | 295 nM | 263 nM | 261 nM |

Continued, values first:

| IC50 [1] | IC50 [2] | IC50 [3] | IC50 [4] | Structure (SMILES) |
| --- | --- | --- | --- | --- |
| 108 nM | 487 nM | 18 nM | 669 nM | O=C1NC(=O)/C(=C/c2ccnc(N3CCC(CNCc4cccnc4)CC3)n2)S1 [compound 176] |
| 136 nM | 204 nM | 169 nM | 422 nM | O=C1NC(=O)/C(=C/c2ccnc(N3CCC(CO)CC3)n2)S1 [compound 98] |
| 127 nM | 166 nM | 298 nM | 361 nM | O=C1NC(=O)/C(=C/c2ccnc(N3CCC(CCO)CC3)n2)S1 [compound 106] |
| 43 nM | 288 nM | 65 nM | 129 nM | O=C1NC(=O)/C(=C/c2ccnc(N3CCC(CNCC4CCN4)CC3)n2)S1 (stereo not shown) [compound 208] |
| 146 nM | 475 nM | 249 nM | 476 nM | O=C1NC(=O)/C(=C/c2ccnc(N3CCC(CNc4ccc5ccccc5n4)CC3)n2)S1 [compound 219] |
| 228 nM | 628 nM | 31 nM | 186 nM | CN1CCC(CNc2nccc(/C=C3\SC(=O)NC3=O)n2)CC1 [compound 92] |
